In US8420606B2, “Method of utilizing physiological activity of rare saccharide and composition containing rare saccharide” (priority 2002, dated 2013):

What was measured:
[1] = system: glutamate release from hippocampus; experiment: temporary brain ischemia, glutamate outside hippocampus neurons by micro-dialysis; assay type: in vivo, gerbil; settings: pre-administration; compared with effect of D-allose
Protocol: (2) Method: The bilateral common carotid artery of a gerbil was shut off for 5 minutes. After 1 week, the gerbil was sacrificed and a sample was prepared in accordance with the ordinary method, followed by hematoxyline eosin dyeing. The survival rate was measured by counting the number of hippocampus neurons while looking at them under a microscope. Experiments were performed on a normal control group, a group subjected to only ischemia, and a group administrated with 200 mg/kg of D-allose or D-psicose before ischemia. It is known that glutamates released in large amount from the neurons with ischemia are toxic to the neurons. Such a point was examined by fixing the gerbil to a brain position fixing device, perfusing a solution, in which oxidase glutamate is dissolved, to the hippocampus through a probe for micro-dialysis, and measuring the glutamate concentration outside the hippocampus neurons. Also, the inventors have clarified the relationship between the metabolism of glucose and the action mechanism of D-allose with ischemia by pre-administrating D-allose and 2-deoxiglucose.

[2] = system: Hepatic cancer cells (HepG2); experiment: proliferation of cultured cells, MTT method, HepG2; assay type: cell-based, human; settings: saccharide 50 mM, 4 to 5 days
Protocol: (§1) Various kinds of rare saccharides were added at a concentration of 50 mM to culture media under the following conditions, and an influence of each rare saccharide upon the progress of proliferation of cancer cell strains was examined.
(§2) (1) Target cells to which the rare saccharides were added: Hepatic cancer cells (HepG2), uterine cancer cells (He1a), ovary cancer cells (OVCAR3), and skin keratinocyte (HaCaT) were selected as target cells to which the rare saccharides were added.
(§3) (2) Rare saccharides added: In addition to D-allose, glucose and D-altros as rare saccharides belonging to ketose were added, as other comparative saccharides, to the addition target cells. Also, D-fructose was employed as a control.
(§4) (3) Experiment method: A number 3,000-5,000 of addition target cells per type were inoculated into a multi-well plastic dish (hereinafter referred to as a “well”) having 96 wells, and were cultured for 4 to 5 days in a culture medium supplemented with 5 to 10% of Fetal Bovine Serum (FBS) depending on the cell types. D-Allose, D-glucose and D-altros were each added at concentration of 50 mM to the addition target cells per type. Similarly, D-fructose as a control was added at a concentration of 50 mM. To examine the influence upon the cell proliferation, the cell number was measured in units of 24 hours by using the MTT method described below.
(1) Preparation of reagents: A predetermined amount of MTT (tetrazolium salt) was dissolved in PBS(−) sterilized in an autoclave to obtain an MTT solution through filtering and sterilization. An acidic solution was prepared by adding 50 mL of N,N-dimethylformaldehyde and water to a predetermined amount of (20 g) of SDS, thereby obtaining a 100 mL of solution. […]
(2) Test method: The cells were treated with TEP to prepare a cell suspension liquid. […] The absorbance of the liquid was measured at a wavelength of 570 to 600 nm by using a spectrophotometer. After dissolving the colored substance (formazan) in the acid solution, the absorbance can be measured directly by a plate reader.

[3] = system: HL-60; experiment: blood-system cancer cell strain proliferation, Coulter Counter, HL60; assay type: cell-based; settings: 0.05-50 mM, 7 days, D-glucose control
Protocol: (§5) (2) Method: Total 6 kinds of cell strains, i.e., Myeloid (HL-60, THP-1, KG-1), T-cell (MT-2), and B-Cell (Daudi, KS-1), and 3 kinds of rare saccharides (i.e., D-psicose, D-altrose, and D-allose), were employed. The culture medium and the cells were prepared to be 1 mL in total and 1×10^5 in number, respectively. Then, the cell number at each of fourth day and seventh day was counted by using a Coulter Counter. Each rare saccharide was added at concentrations of 0.05, 0.5, 5 and 50 mM, while D-glucose was used as a control.
(§6) Culture Medium: FBS 10% added RPMI1460
(§7) Cultivation Conditions: 37° C., 5% CO2
(§8) Cultivation Vessel: FALCON, MULTIWELL, 12 wells
(§9) Number of Cultivation Days: 7 days
(§10) Saccharides Concentration: 0.05, 0.5, 5, 50 mM

[4] = system: skin keratinocyte (HaCaT); experiment: proliferation of cultured cells, MTT method, HaCaT; assay type: cell-based, human; settings: saccharide 50 mM, 4 to 5 days
Protocol: as §1, §2, §3
(3) Experiment method: A number 3,000-5,000 of addition target cells per type were inoculated into a multi-well plastic dish (hereinafter referred to as a “well”) having 96 wells, and were cultured for 4 to 5 days in a culture medium supplemented with 5 to 10% of Fetal Bovine Serum (FBS) depending on the cell types. […] To examine the influence upon the cell proliferation, the cell number was measured in units of 24 hours by using the MTT method described below. […]
(2) Test method: The cells were treated with TEP to prepare a cell suspension liquid. […] The absorbance of the liquid was measured at a wavelength of 570 to 600 nm by using a spectrophotometer. […]

[5] = system: Rat leukocyte (granulocyte); experiment: production of active oxygen from leukocyte, LO12 chemiluminescence, zymosan; assay type: cell-based; settings: saccharide 10 mM added to the producing system, zymosan
Protocol: Influences of various kinds of rare saccharides upon production of active oxygen from leukocyte were examined under the conditions given below. In this Example 5, an effect against the production of active oxygen from leukocyte was examined with LO12 chemiluminescence.
(1) Target leukocyte to which the rare saccharides were added: Rat leukocyte (granulocyte) was used.
(2) Rare saccharides added: In addition to D-allose as a rare saccharide belonging to aldose, D-psicose and D-altros as rare saccharides belonging to ketose and D-tallitol belong to polyol were added as other comparative saccharides. Further, D-glucose and D-fructose were employed as saccharides abundant in the natural world.
(3) Experiment method: (1) Changes over time in production of active oxygen from rat leukocyte . . . The time-dependent progress in production of active oxygen caused by adding zymosan particles to rat leukocyte (granulocyte) was examined. Also, the time-dependent progress in production of active oxygen caused under the presence of each of the rare saccharides was examined.
(2) Influences of rare saccharides upon production of active oxygen . . . By adding the various saccharides to the system for producing active oxygen from leukocyte, the amount of produced active oxygen was measured for each saccharide. The concentration of each of the added rare saccharides was set to 10 mM. Also, the measurement was made under the condition without addition of any saccharides.
(3) Effect of rare saccharides upon production of active oxygen . . . The rare saccharides were each added at concentration of 10 mM after the start of phagocytosis and the start of the production of active oxygen subsequent to addition of zymosan to leukocyte.
(4) Concentration dependency of active-oxygen production inhibitory effect of D-allose . . . Concentration dependency of the active-oxygen production inhibitory effect of D-allose was examined. D-allose was added at concentration of 0 mM, 5 mM and 10 mM.

[6] = system: ovary cancer cells (OVCAR3); experiment: proliferation of cultured cells, MTT method, OVCAR3; assay type: cell-based; settings: saccharide 50 mM, 4 to 5 days, MTT
Protocol: as §1, §2, §3, §4
(1) Preparation of reagents: A predetermined amount of MTT (tetrazolium salt) was dissolved in PBS(−) sterilized in an autoclave to obtain an MTT solution through filtering and sterilization. An acidic solution was prepared by adding 50 mL of N,N-dimethylformaldehyde and water to a predetermined amount of (20 g) of SDS, thereby obtaining a 100 mL of solution. About […] of 1N hydrochloric acid was added to the solution for adjustment of a pH-value to 4.7. The solution was preserved at room temperature and warmed up to 37° C. just before the use.
(2) Test method: The cells were treated with TEP to prepare a cell suspension liquid. This cell suspension liquid was pipetted in a predetermined cell-density (300 to 52000 cells/well) to each well (96-well plate: 0.1 mL of culture medium per well). The saccharide as a drug was added in a predetermined amount to each well, followed by cultivation for a whole day and night in a CO2 incubator. Then, 0.5 mg/mL of the MTT solution was added and the resulting culture was incubated for 4 hours in the incubator. Thereafter, the culture medium was completely removed. Then, in a room kept at 37° C., an acid solution was added in amount of 0.1 mL/well. The well plate was placed on a micro-plate mixer and shaken at 37° C. for 20 minutes to dissolve a colored substance (namely, to dissolve “formazan” in the acid solution). The absorbance of the liquid was measured at a wavelength of 570 to 600 nm by using a spectrophotometer. After dissolving the colored substance (formazan) in the acid solution, the absorbance can be measured directly by a plate reader.
(1) Experiment method: The ovary cancer cells (OVCAR3) were selected as target cells to which a rare saccharide was added, and D-allose as the saccharide was added at concentrations of 1 mM, 5 mM, 10 mM, 20 mM, 50 mM and 100 mM. The experimental conditions, such as the method of culturing the ovary cancer cells (OVCAR3) and the method of measuring the cell number (MTT method), were the same as those in Example 1.

[7] = system: Daudi; experiment: blood-system cancer cell strain proliferation, Coulter Counter, Daudi; assay type: cell-based; settings: 0.05-50 mM, 7 days, D-glucose control
Protocol: as §5, §6, §7, §8, §9, §10

[8] = target: human albumin (Homo sapiens, UniProt P02768); experiment: saccharification (glycation) of albumin, glycoalbumin reagent; assay type: biochemical; settings: albumin 3 g/dl
Sequence of human albumin (P02768 25-609): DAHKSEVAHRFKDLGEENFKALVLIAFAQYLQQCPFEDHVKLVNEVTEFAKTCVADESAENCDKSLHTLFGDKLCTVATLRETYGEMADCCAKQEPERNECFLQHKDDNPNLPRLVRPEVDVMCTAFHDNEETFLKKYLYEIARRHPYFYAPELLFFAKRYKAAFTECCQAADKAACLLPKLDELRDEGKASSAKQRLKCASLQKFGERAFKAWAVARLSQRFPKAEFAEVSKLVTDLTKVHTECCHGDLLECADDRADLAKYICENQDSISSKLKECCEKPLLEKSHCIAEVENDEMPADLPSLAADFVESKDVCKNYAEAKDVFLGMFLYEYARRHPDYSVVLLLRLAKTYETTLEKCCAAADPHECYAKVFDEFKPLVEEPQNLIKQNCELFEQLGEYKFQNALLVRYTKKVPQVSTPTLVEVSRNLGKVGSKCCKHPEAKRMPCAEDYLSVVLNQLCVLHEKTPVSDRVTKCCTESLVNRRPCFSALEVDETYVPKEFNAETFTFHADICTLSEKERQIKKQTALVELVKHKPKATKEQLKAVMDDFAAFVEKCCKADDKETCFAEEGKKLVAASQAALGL
Protocol: (2) Method: After fragmenting albumin into amino acids by using protease K, i.e., glycoalbumin (GA) measurement reagent (made by Oriental Yeast Co., Ltd.), glycolysine was measured by using ketoamine oxydase (see FIG. 38). Glycation of human albumin with various rare saccharides was examined. A sample was prepared through the steps of dissolving 3 g/dl of pure human albumin in PBS and then dissolving each of the rare saccharides so as to prepare a solution in final concentration of 55.5 mM. The prepared solution was filtrated with a filter of 0.25 μm mesh and sterilized, followed by incubation at 37° C. for 7 days. During the incubation, the GA concentration (glycolysine concentration) was measured at intervals of exactly 24 hours. Further, similar experiments were conducted by adding each of the rare saccharides in an albumin solution (final concentration 3 g/dl) and a glucose solution (final concentration 55.5 mM) so that each of the rare saccharides had final concentration of 55.5 mM.

[9] = saccharide 55.5 mM, 37° C., 7 days

O=CC[C@@H](O)[C@H](O)[C@H](O)CO [2-deoxyglucose, reference compound]
glutamate release inhibitory effect [1]: similarly observed

O=C[C@@H](O)[C@H](O)[C@H](O)[C@H](O)CO [D-altrose, reference compound]
proliferation of HepG2 cells (cell number over time) [2]: weaker than that of D-allose | HL60 proliferation inhibitory effect [3]: showed no effect | proliferation of HaCaT cells (cell number over time) [4]: inhibitory effect at a medium level | production of active oxygen from leukocyte [5]: No inhibitory effect | proliferation of OVCAR3 cells (cell number over time) [6]: weaker than that of D-allose | Daudi-cell proliferation inhibitory effect [7]: showed no effect

O=C(CO)[C@@H](O)[C@H](O)[C@H](O)CO [D-fructose, reference compound]
glycation (saccharification) of albumin [8, 9]: do not cause the saccharification

O=C[C@@H](O)[C@@H](O)[C@H](O)[C@H](O)CO [D-mannose, reference compound]
saccharification rate of albumin under coexistence with glucose ([8]; saccharide 55.5 mM + D-glucose 55.5 mM): about 100 μmol/day | saccharification rate of albumin [8, 9]: about 50 μmol/day

OC[C@@H](O)[C@H](O)[C@H](O)[C@H](O)CO [D-tallitol, reference compound]
production of active oxygen from leukocyte [5]: No inhibitory effect
